Assays:
[1] = tested on: Alternaia brassicicola; test: Test Example C: Alternaria sooty spot on cabbage; type: in vivo; conditions: Alternaria sooty spot on cabbage; class of control value
Source text: Seeds of a test plant (cabbage variety: Shikidori) were planted and cultivated until the cotyledons extended.
<Control Value> Control value=100{1−(n/3)}

[2] = tested on: Botrytis cinerea; test: Test Example B: Gray mold on tomato; conditions: Gray mold on tomato; class of control value
[3] = tested on: Blumeria graminis f. sp. hordei; test: Test Example D: Powdery mildew on barley; conditions: Powdery mildew on barley; class of control value
[4] = tested on: Colletotrichum orbiculare; test: Test Example H: Anthracnose on cucumber; conditions: Anthracnose on cucumber (Sagami Hanjiro); 250 ppm spray, 2.5 ml/pot; assessed 6 to 10 days after inoculation
[5] = tested on: Puccinia recondita; test: Test Example E: Brown rust on wheat; type: in vivo; conditions: Brown rust on wheat; class of control value
[6] = tested on: Phytophthora infestans; test: whole plant or invertebrate; type: in vivo; conditions: Late blight on tomato; class of control value
[7] = tested on: Magnaporthe grisea; test: whole plant or invertebrate; type: in vivo; conditions: Blast on rice; class of control value
[8] = tested on: Plasmopara viticola; test: Test Example G: Downy mildew on vine; conditions: Downy mildew on vine (Neomuscat); 250 ppm spray, 2.5 ml/pot; assessed 7 to 10 days after inoculation

Compound	Test C control value class [1]	Test B control value class [2]	Test D control value class [3]	Test H control value class [4]	Test E control value class [5]	Test F control value class [6]	Test A control value class [7]	Test G control value class [8]
CCC(=O)c1cc(Cl)c(=O)n(CC)c1-c1c(F)cc(F)cc1F [compound 49]	H (more than 50% control value)	H (more than 50% control value)	H (more than 50% control value)	H (more than 50% control value)	H (more than 50% control value)	L (50% or less control value)	H (more than 50% control value)	L (50% or less control value)
CCC(O)c1cc(Cl)c(=O)n(CC)c1-c1c(F)cc(OC)cc1F (centres unmarked) [compound 50]	H (more than 50% control value)	H (more than 50% control value)	L (50% or less control value)	H (more than 50% control value)	H (more than 50% control value)	L (50% or less control value)	H (more than 50% control value)	H (more than 50% control value)
CCC(=O)c1cc(Cl)c(=O)n(CC)c1-c1c(F)cc(OC)cc1F [compound 51]	H (more than 50% control value)	H (more than 50% control value)	H (more than 50% control value)	H (more than 50% control value)	H (more than 50% control value)	L (50% or less control value)	H (more than 50% control value)	L (50% or less control value)
CCn1c(-c2c(F)cc(F)cc2F)c(C(C)(O)CC)cc(Cl)c1=O (centres unmarked) [compound 52]	H (more than 50% control value)	H (more than 50% control value)	H (more than 50% control value)	H (more than 50% control value)	H (more than 50% control value)	L (50% or less control value)	H (more than 50% control value)	H (more than 50% control value)
CCn1c(-c2c(F)cc(F)cc2F)c(C(C)(CC)OC)cc(Cl)c1=O (centres unmarked) [compound 54]	H (more than 50% control value)	H (more than 50% control value)	H (more than 50% control value)	H (more than 50% control value)	H (more than 50% control value)	L (50% or less control value)	H (more than 50% control value)	L (50% or less control value)
CCn1c(-c2c(F)cc(OC)cc2F)c(C(C)(CC)OC)cc(Cl)c1=O (centres unmarked) [compound 55]	H (more than 50% control value)	H (more than 50% control value)	H (more than 50% control value)	H (more than 50% control value)	H (more than 50% control value)	L (50% or less control value)	H (more than 50% control value)	L (50% or less control value)
CCn1c(-c2c(F)cc(F)cc2F)c(C(C)(F)CC)cc(Cl)c1=O (centres unmarked) [compound 56]	H (more than 50% control value)	H (more than 50% control value)	H (more than 50% control value)	H (more than 50% control value)	H (more than 50% control value)	L (50% or less control value)	H (more than 50% control value)	H (more than 50% control value)
CCn1c(-c2c(F)cccc2F)c(COC(C)C)cc(Cl)c1=O [compound 57]	H (more than 50% control value)	H (more than 50% control value)	H (more than 50% control value)	H (more than 50% control value)	H (more than 50% control value)	L (50% or less control value)	L (50% or less control value)	L (50% or less control value)
CCn1c(-c2c(F)cc(F)cc2F)c(COC(C)C)cc(Cl)c1=O [compound 58]	H (more than 50% control value)	H (more than 50% control value)	H (more than 50% control value)	H (more than 50% control value)	H (more than 50% control value)	L (50% or less control value)	H (more than 50% control value)	L (50% or less control value)
CCn1c(-c2c(F)cc(OC)cc2F)c(C(C)(O)CC)cc(Cl)c1=O (centres unmarked) [compound 59]	H (more than 50% control value)	H (more than 50% control value)	H (more than 50% control value)	H (more than 50% control value)	H (more than 50% control value)	L (50% or less control value)	H (more than 50% control value)	H (more than 50% control value)
CCn1c(-c2c(F)cc(OC)cc2F)c(COC(C)C)cc(Cl)c1=O [compound 60]	H (more than 50% control value)	H (more than 50% control value)	H (more than 50% control value)	H (more than 50% control value)	H (more than 50% control value)	L (50% or less control value)	H (more than 50% control value)	H (more than 50% control value)
CCn1c(-c2c(F)cc(OC)cc2F)c(C(C)(F)CC)cc(Cl)c1=O (centres unmarked) [compound 61]	H (more than 50% control value)	H (more than 50% control value)	H (more than 50% control value)	H (more than 50% control value)	H (more than 50% control value)	L (50% or less control value)	H (more than 50% control value)	H (more than 50% control value)
CCOCc1cc(Cl)c(=O)n(CC)c1-c1c(F)cccc1F [compound 62]	H (more than 50% control value)	H (more than 50% control value)	H (more than 50% control value)	H (more than 50% control value)	H (more than 50% control value)	L (50% or less control value)	H (more than 50% control value)	H (more than 50% control value)
CCn1c(-c2c(F)cccc2F)c(C(OC)C(C)C)cc(Cl)c1=O (centres unmarked) [compound 63]	H (more than 50% control value)	H (more than 50% control value)	H (more than 50% control value)	H (more than 50% control value)	H (more than 50% control value)	L (50% or less control value)	H (more than 50% control value)	H (more than 50% control value)
CCn1c(-c2c(F)cc(F)cc2F)c(C(O)C(C)C)cc(Cl)c1=O (centres unmarked) [compound 64]	H (more than 50% control value)	H (more than 50% control value)	H (more than 50% control value)	H (more than 50% control value)	H (more than 50% control value)	L (50% or less control value)	H (more than 50% control value)	H (more than 50% control value)
CCn1c(-c2c(F)cc(F)cc2F)c(C(OC)C(C)C)cc(Cl)c1=O (centres unmarked) [compound 65]	H (more than 50% control value)	H (more than 50% control value)	H (more than 50% control value)	H (more than 50% control value)	H (more than 50% control value)	L (50% or less control value)	H (more than 50% control value)	L (50% or less control value)

— US11147272B2, “Pyridone compounds and agricultural and horticultural fungicides comprising the same as active ingredients” (MITSUI CHEMICALS AGRO, INC., priority 2017, dated 2021)
